Data taken from patent US20230309520A1, “AGE-RELATED HEARING LOSS ANIMAL MODEL AND CONSTRUCTION METHOD THEREFOR” (UNIVERSITY INDUSTRY FOUNDATION, YONSEI UNIVERSITY WONJU …, priority 2020, published 2023).

Columns and labels:
SOD = assay: Superoxide dismutase (SOD) activity test in serum; type: in vivo, C57BL/6 mice; parameters: unit not given here
Description: Specifically, the blood was reacted in an anticoagulant tube at 25° C. (room temperature) for 30 minutes, and then centrifuged at 2,000 × g for 15 minutes at 4° C. to prepare purified serum. The purified serum was stored at -80° C. for one month and diluted 1:5 with sample buffer before analysis, and then the amount of SOD in the body was measured using an SOD assay kit (No. 706002, Cayman Che., MI, USA). The SOD assay kit is a kit that uses tetrazolium salt to detect superoxide radicals generated by xanthine oxidase and hypoxanthine. […] The amount of oxidative stress in serum was analyzed by analyzing the SOD activity test result in Experimental Example <1-5>.

[1] = Auditory brainstem response test (ABR-TEST), hearing threshold; type: in vivo, C57BL/6 mice; conditions: for hearing threshold: hypoxia
auditory hair cells = assay: Hair cell survival and damage by Myo7a immunostaining of cochlear slices; type: in vivo, C57BL/6 mice; conditions: normoxia; single condition
[2] = mouse

Dermis Thickness [2]: 348.5 ±85.9
SMILES: O=C[C@H](O)[C@@H](O)[C@@H](O)[C@H](O)CO [GI, D-galactose]
amount of SOD in serum (SOD; hypoxia, 0 M): 0.5914 ±0.000 | amount of SOD in serum (SOD; hypoxia, 1 M): 0.5627 ± 0.005 | amount of SOD in serum (SOD; hypoxia, 2 M): 0.5463 ± 0.005 | amount of SOD in serum (SOD; hypoxia, 3 M): 0.5695 ± 0.059 | amount of SOD in serum (SOD; normoxia, 0 M): 0.5955 ± 0.017 | amount of SOD in serum (SOD; normoxia, 1 M): 0.5463 ± 0.005 | amount of SOD in serum (SOD; normoxia, 2 M): 0.5216 ± 0.005 | amount of SOD in serum (SOD; normoxia, 3 M): 0.5148 ± 0.028 | hearing threshold ([1]; 8, 16, 24 kHz analysis, initial value (increased from)): 30 dB | hearing threshold ([1]; 8, 16, 24 kHz analysis, value after 1 month (increased to)): 60 dB | hearing threshold ([1]; 8 kHz, final value (increased to), 3 months): 67 + 10.13 dB | hearing threshold ([1]; 8 kHz, initial value (increased from)): 34 + 3.76 dB | hearing threshold ([1]; 16 kHz, final value (increased to), 3 months): 60 + 7.33 dB | hearing threshold ([1]; 16 kHz, initial value (increased from)): 38 + 4.08 dB | change in hearing threshold compared to control group ([1]; normoxia, 8, 16, and 24 kHz): do not change significantly | change in the hearing threshold ([1]; normoxia, 8 kHz): no significant change | changes in the hearing thresholds ([1]; normoxia, frequencies of 4 to 32 kHz, 3 months): no significant changes | damage to hair cells (auditory hair cells): almost no damage to cells
